From patent US20070072815A1, “Methods and kits to increase the efficiency of oligonucleotide-directed nucleic acid sequence alteration” (priority 2004, published 2007) come the findings set out here.

Test [1] relates to mutant eGFP gene in DLD-1-1 cells. The test is described as follows: eGFP gene correction (oligonucleotide-directed sequence alteration) in DLD-1-1 cells, FACS readout. Type of test: cell-based.
The test system of test [2] is α-galactosidase A (GLA) activity in Fabry's cell line DMN-1. The test is described as follows: GLA activity in Fabry's cells after ODSA. Format: cell-based, human.

Several values for one entry are separate records, joined by “and”; a condition that tells them apart may be missing. Equal entries are not always repeated.

Consider `NC(=O)NO` [HU, hydroxyurea], for which the “correction efficiency (frequency of gene repair)” value in test [1] (1 mM HU 24 hours before electroporation, asynchronous cells) was 2.2% and ~3%. For the same molecule, the “correction efficiency in synchronized cells relative to asynchronous cells” value in test [1] (1 mM HU or 10 mM thymidine, DTB synchronized vs asynchronous) is “more than three times”. In test [1] (HU 0.3-5 mM or VP16 0.5-10 μM for 24 hours prior to electroporation), the “effect of dose on correction efficiency” value is given as “increase correction efficiency in a dose-dependent manner”. In addition, the “increase in GLA activity compared to untreated cells” value in test [2] (0.3 mM and 1 mM HU, after seven days) is on record as “approximately three-fold”. Also, in test [2] (cells synchronized by DTB, 1 mM HU prior to transfection with 49T/gg), the “increase of GLA activity compared to untreated cells” value is given as “five-fold”.
